Results as given in patent publication US12060349B2, “Glucosylceramide synthase inhibitors” (Genzyme Corporation, priority 2012, dated 2024).
Like-named read-outs stand apart in the source and are kept apart here.

Experiments:
[1] = system: GM3 expression on the cell surface, B16 mouse melanoma cells; assay: cell based phenotypic assay, cell surface GM3 by antibody mediated immunofluorescence, B16 (GM3 B16 IC50); conditions: Mus musculus, 50% inhibition of GM3 expression on the cell surface
In short: (§1)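 Both lines undergo the phenotypic GM3 assay, and viability is recorded from that same cell-based run.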

[2] = biological target: T1, glucosylceramide synthase (Homo sapiens, UniProt Q16739); assay: microsomal assay measuring conversion of ceramide to glucosylceramide by HPLC (GCS IC50); type: biochemical; conditions: concentration causing 50% inhibition of glucosylceramide synthase activity
T1 construct: Microsomes were isolated from A375 human melanoma cells; endogenous in cells; host or cells: A375 human melanoma cells (microsomal fraction, 100,000 g pellet)
T1 sequence (Q16739 1-394): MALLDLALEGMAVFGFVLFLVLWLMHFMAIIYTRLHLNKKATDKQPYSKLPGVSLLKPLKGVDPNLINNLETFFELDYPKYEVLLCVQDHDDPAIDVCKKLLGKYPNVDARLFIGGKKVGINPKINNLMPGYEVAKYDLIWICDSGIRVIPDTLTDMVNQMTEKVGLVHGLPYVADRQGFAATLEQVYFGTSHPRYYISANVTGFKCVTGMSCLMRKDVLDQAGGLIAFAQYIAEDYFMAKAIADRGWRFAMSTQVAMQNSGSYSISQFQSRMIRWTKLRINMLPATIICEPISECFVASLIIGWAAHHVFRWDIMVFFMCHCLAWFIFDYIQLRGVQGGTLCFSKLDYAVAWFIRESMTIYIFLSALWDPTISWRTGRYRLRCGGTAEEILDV
In short: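 IC50 is the compound concentration halving glucosylceramide synthase activity. Activity was measured in microsomes, with HPLC quantifying glucosylceramide formed from ceramide.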

B16 mouse melanoma cells = assay: cell viability in the B16 cell-based assay (Viability, B16 IC50)
In short: (§2)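 Viability readouts were run alongside the GM3 cell-surface assay in the same B16 and C32 cultures. A figure above 10 indicates no cell death.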

C32 human melanoma cells = assay: cell viability in the C32 cell-based assay (Viability, C32 IC50); conditions: concentration causing 50% cell death, values greater than 10 represent a lack of cell death
In short: as §2

[3] = system: GM3 expression on the cell surface, C32 human melanoma cells; assay: cell based phenotypic assay, cell surface GM3 by antibody mediated immunofluorescence, C32 (GM3 C32 IC50); conditions: Homo sapiens, 50% inhibition of GM3 expression on the cell surface
In short: as §1

[4] = read-out: GM3 B16 IC50, B16 mouse melanoma cells
[5] = Mus musculus, B16, read-out: Viability, B16 IC50
[6] = Homo sapiens, C32, read-out: Viability, C32 IC50, C32 cells
[7] = read-out: GM3 C32 IC50, C32 human melanoma cells
[8] = B16 mouse melanoma cells, read-out: GM3 B16 IC50
[9] = Mus musculus, B16, B16 cells, concentration causing 50% cell death, values greater than 10 represent a lack of cell death, read-out: Viability, B16 IC50
[10] = Homo sapiens, C32, C32 cells, read-out: Viability, C32 IC50
[11] = C32 human melanoma cells, read-out: GM3 C32 IC50

| Compound | IC50 [1, 4] [nM] | IC50 [2] [nM] | IC50 (B16 mouse melanoma cells; [5]) [nM] | IC50 (C32 human melanoma cells; [6]) [nM] | IC50 [3, 7] [nM] | IC50 [1, 8] [nM] | IC50 (B16 mouse melanoma cells; [9]) [nM] | IC50 (C32 human melanoma cells; [10]) [nM] | IC50 [3, 11] [nM] | IC50 (B16 mouse melanoma cells; read-out: Viability, B16 IC50, B16 cells, concentration causing 50% cell death, values greater than 10 represent a lack of cell death) [nM] | IC50 (C32 human melanoma cells; read-out: Viability, C32 IC50, C32 cells) [nM] |
| --- | --- | --- | --- | --- | --- | --- | --- | --- | --- | --- | --- |
| O=C(NC1(c2ccc(-c3ccc(COCc4cccnc4)cc3)cc2)CC1)OC1CN2CCC1CC2 (centres unmarked) [Example 216, Quinuclidin-3-yl (1-(4′-((pyridin-3-ylmethoxy)methyl)-[1,1′-biphenyl]-4-yl)cyclopropyl)carbamate] | 201 | 9.33 | 7940 | ≥ 10000 | 11.1 | – | – | – | – | – | – |
| CCC1(NC(=O)NC2(c3ccc(-c4ccc(COCc5cccnc5)cc4)cc3)CC2)CN2CCC1CC2 (centres unmarked) [Example 217, 1-(3-Ethylquinuclidin-3-yl)-3-(1-(4′-((pyridin-3-ylmethoxy)methyl)-[1,1′-biphenyl]-4-yl)cyclopropyl)urea] | – | 13.3 | – | – | – | 168 | ≥ 10000 | ≥ 10000 | 4.02 | – | – |
| CCCC1(NC(=O)NC2(c3ccc(-c4ccc(COCc5cccnc5)cc4)cc3)CC2)CN2CCC1CC2 (centres unmarked) [Example 218, 1-(3-Propylquinuclidin-3-yl)-3-(1-(4′-((pyridin-3-ylmethoxy)methyl)-[1,1′-biphenyl]-4-yl)cyclopropyl)urea] | – | 11 | – | – | – | 80.9 | 7950 | ≥ 10000 | 2.97 | – | – |
| O=C(NC1(c2ccc(-c3ccc(COCc4cncnc4)cc3)cc2)CC1)OC1CN2CCC1CC2 (centres unmarked) [Example 219, Quinuclidin-3-yl (1-(4′-((pyrimidin-5-ylmethoxy)methyl)-[1,1′-biphenyl]-4-yl)cyclopropyl)carbamate] | 118 | 46.6 | ≥ 10000 | ≥ 10000 | 20.9 | – | – | – | – | – | – |
| CCC1(NC(=O)NC2(c3ccc(-c4ccc(COCc5cncnc5)cc4)cc3)CC2)CN2CCC1CC2 (centres unmarked) [Example 220, 1-(3-Ethylquinuclidin-3-yl)-3-(1-(4′-((pyrimidin-5-ylmethoxy)methyl)-[1,1′-biphenyl]-4-yl)cyclopropyl)urea] | – | 51.6 | – | – | – | 114 | ≥ 10000 | 3160 | 6.06 | – | – |
| O=C(NC1(c2ccc(-c3ccc(COCc4cncnc4)cc3)cc2)CC1)OC1CCN2CCC1CC2 (centres unmarked) [Example 221, 1-Azabicyclo[3.2.2]nonan-4-yl (1-(4′-((pyrimidin-5-ylmethoxy)methyl)-[1,1′-biphenyl]-4-yl)cyclopropyl)carbamate] | – | 52.1 | – | – | – | 99.2 | ≥ 10000 | ≥ 10000 | 21.1 | – | – |
| COCCCc1ccc(-c2ccc(C(C)(C)NC(=O)NC3(C)CN4CCC3CC4)cc2)cc1 (centres unmarked) [Example 222, 1-(2-(4′-(3-Methoxypropyl)-[1,1′-biphenyl]-4-yl)propan-2-yl)-3-(3-methylquinuclidin-3-yl)urea] | – | 1.7 | – | – | – | 30.7 | ≥ 10000 | ≥ 10000 | 0.758 | – | – |
| CC(C)(NC(=O)OC1CN2CCC1CC2)c1ccc(-c2ccc(CO)cc2)cc1 (centres unmarked) [Example 223, Quinuclidin-3-yl (2-(4′-(hydroxymethyl)-[1,1′-biphenyl]-4-yl)propan-2-yl)carbamate] | 881 | 454 | – | – | 21.6 | – | – | – | – | ≥ 10000 | ≥ 10000 |
| CCCC1(NC(=O)NC(C)(C)c2ccc(-c3ccc(CCO)cc3)cc2)CN2CCC1CC2 (centres unmarked) [Example 224, 1-(2-(4′-(2-Hydroxyethyl)-[1,1′-biphenyl]-4-yl)propan-2-yl)-3-(3-propylquinuclidin-3-yl)urea] | – | 20.2 | – | – | – | 64.3 | ≥ 10000 | ≥ 10000 | 1.6 | – | – |
| CCC1(NC(=O)NC(C)(C)c2ccc(-c3ccc(CCO)cc3)cc2)CN2CCC1CC2 (centres unmarked) [Example 225, 1-(3-Ethylquinuclidin-3-yl)-3-(2-(4′-(2-hydroxyethyl)-[1,1′-biphenyl]-4-yl)propan-2-yl)urea] | – | 29.4 | – | – | – | 229 | ≥ 10000 | ≥ 10000 | 1.92 | – | – |
